From US9670227B2, “Thienopyrimidine derivatives, a process for their preparation and pharmaceutical compositions containing them” (LES LABORATOIRES SERVIER, priority 2013, dated 2017)

These compounds were tested against Mcl-1 protein (UniProtKB primary accession number: Q07820) (Homo sapiens, UniProt Q07820) (assay: Inhibition of Mcl-1 by fluorescence polarisation, Method 1). Details: @ 10 uM test compound.
Assay type: binding
Method in brief: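 FP readout of relative binding potency. Mcl-1 5 nM final, fluorescein-labelled ligand 1 nM final; buffer 10 mM HEPES, 150 mM NaCl, 0.05% Tween 20, pH 7.4; 11-pt dilution series, 5% DMSO final.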

Mcl-1 protein, sequence (Q07820 whole entry): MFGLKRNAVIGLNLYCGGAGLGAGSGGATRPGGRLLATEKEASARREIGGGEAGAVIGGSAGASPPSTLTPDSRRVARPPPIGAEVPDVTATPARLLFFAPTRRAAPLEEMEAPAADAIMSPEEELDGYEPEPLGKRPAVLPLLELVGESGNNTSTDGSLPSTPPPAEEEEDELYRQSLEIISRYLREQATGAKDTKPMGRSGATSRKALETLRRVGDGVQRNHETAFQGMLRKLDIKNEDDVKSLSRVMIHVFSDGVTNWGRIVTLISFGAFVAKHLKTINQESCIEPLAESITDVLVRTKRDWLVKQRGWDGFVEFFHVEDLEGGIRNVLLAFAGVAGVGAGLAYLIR

Structure (SMILES) | percentage fluorescence polarisation inhibition (Mcl-1 FP), partial inhibitors [% @ 10 uM]
CCc1c(-c2c(-c3ccco3)sc3ncnc(O[C@H](Cc4ccccc4OC)C(=O)O)c23)ccc(OCCN2CCN(C)CC2)c1Cl [Example 336, (2R)-2-{[(5Ra)-5-{3-chloro-2-ethyl-4-[2-(4-methylpiperazin-1-yl)ethoxy]phenyl}-6-(furan-2-yl)thieno[2,3-d]pyrimidin-4-yl]oxy}-3-(2-methoxyphenyl)propanoic acid] | 43.2
Cc1c(-c2c(-c3ccco3)sc3ncnc(O[C@@H](C(=O)O)c4ccccc4)c23)ccc(OCCN2CCN(C)CC2)c1Cl [Example 339, (2R)-{[(5Ra)-5-{3-chloro-2-methyl-4-[2-(4-methylpiperazin-1-yl)ethoxy]phenyl}-6-(furan-2-yl)thieno[2,3-d]pyrimidin-4-yl]oxy}(phenyl)ethanoic acid] | 18.85

Same assay, conditions: fluorescence polarisation test; Method 2 values are underlined in the patent (underlining not visible here); read-out: IC50 (M) Mcl-1 FP

Structure (SMILES) | IC50 [M]
Cc1c(-c2c(-c3ccco3)sc3ncnc(OC(Cc4ccccc4OCc4cncn4C)C(=O)O)c23)ccc(OCCN2CCN(C)CC2)c1Cl [Example 276, (2R)-2-{[(5Sa)-5-{3-chloro-2-methyl-4-[2-(4-methylpiperazin-1-yl)ethoxy]phenyl}-6-(furan-2-yl)thieno[2,3-d]pyrimidin-4-yl]oxy}-3-{2-[(1-methyl-1H-imidazol-5-yl)methoxy]phenyl}propanoic acid] | 6.2e-09
COc1ccccc1CC(Oc1ncnc2sc(-c3ccco3)c(-c3ccc(OCCN4CC[N+](C)([O-])CC4)c(Cl)c3C)c12)C(=O)O [Example 296, (2R)-2-{[(5Sa)-5-{3-chloro-2-methyl-4-[2-(4-methyl-4-oxidopiperazin-1-yl)ethoxy]phenyl}-6-(furan-2-yl)thieno[2,3-d]pyrimidin-4-yl]oxy}-3-(2-methoxyphenyl)propanoic acid] | 9.3e-09
COc1ccccc1CC(Oc1ncnc2sc(-c3ccco3)c(-c3ccc(OCC[N+]4([O-])CC[N+](C)([O-])CC4)c(Cl)c3C)c12)C(=O)O [Example 297, (2R)-2-{[(5Sa)-5-{3-chloro-2-methyl-4-[2-(4-methyl-1,4-dioxidopiperazin-1-yl)ethoxy]phenyl}-6-(furan-2-yl)thieno[2,3-d]pyrimidin-4-yl]oxy}-3-(2-methoxyphenyl)propanoic acid] | 6.6e-09
COc1ccccc1CC(Oc1ncnc2sc(-c3ccco3)c(-c3ccc(OCC4CNCCO4)c(Cl)c3C)c12)C(=O)O [Example 315, (2R)-2-({(5Sa)-5-[3-chloro-2-methyl-4-(morpholin-2-ylmethoxy)phenyl]-6-(furan-2-yl)thieno[2,3-d]pyrimidin-4-yl}oxy)-3-(2-methoxyphenyl)propanoic acid] | 2.2e-08
COc1ccccc1CC(Oc1ncnc2sc(-c3ccco3)c(-c3ccc(OCCN4CCN(C)C(=O)C4)c(Cl)c3C)c12)C(=O)O [Example 321, (2R)-2-{[(5Sa)-5-{3-chloro-2-methyl-4-[2-(4-methyl-3-oxopiperazin-1-yl)ethoxy]phenyl}-6-(furan-2-yl)thieno[2,3-d]pyrimidin-4-yl]oxy}-3-(2-methoxyphenyl)propanoic acid] | 6e-09
COc1ccccc1CC(Oc1ncnc2sc(-c3ccco3)c(-c3ccc(OCCN4CCN(C(C)=O)CC4)c(Cl)c3C)c12)C(=O)O [Example 323, (2R)-2-{[(5Sa)-5-{4-[2-(4-acetylpiperazin-1-yl)ethoxy]-3-chloro-2-methylphenyl}-6-(furan-2-yl)thieno[2,3-d]pyrimidin-4-yl]oxy}-3-(2-methoxyphenyl)propanoic acid] | 8.8e-09
COc1ccccc1CC(Oc1ncnc2sc(-c3ccco3)c(-c3ccc(OCCN4CCN(c5ccccc5)CC4)c(Cl)c3C)c12)C(=O)O [Example 325, (2R)-2-{[(5Sa)-5-{3-chloro-2-methyl-4-[2-(4-phenylpiperazin-1-yl)ethoxy]phenyl}-6-(furan-2-yl)thieno[2,3-d]pyrimidin-4-yl]oxy}-3-(2-methoxyphenyl)propanoic acid] | 5.2e-08
COc1ccccc1CC(Oc1ncnc2sc(-c3ccco3)c(-c3ccc(OCCN4CCN(CC(N)=O)CC4)c(Cl)c3C)c12)C(=O)O [Example 326, (2R)-2-{[(5Sa)-5-(4-{2-[4-(2-amino-2-oxoethyl)piperazin-1-yl]ethoxy}-3-chloro-2-methylphenyl)-6-(furan-2-yl)thieno[2,3-d]pyrimidin-4-yl]oxy}-3-(2-methoxyphenyl)propanoic acid] | 7.9e-09
COc1ccccc1CC(Oc1ncnc2sc(-c3ccco3)c(-c3ccc(OCCN4CCN(CC(F)(F)F)CC4)c(Cl)c3C)c12)C(=O)O [Example 327, (2R)-2-{[(5Sa)-5-(3-chloro-2-methyl-4-{2-[4-(2,2,2-trifluoroethyl)piperazin-1-yl]ethoxy}phenyl)-6-(furan-2-yl)thieno[2,3-d]pyrimidin-4-yl]oxy}-3-(2-methoxyphenyl)propanoic acid] | 1.5e-08
COc1ccccc1CC(Oc1ncnc2sc(-c3ccco3)c(-c3ccc(OC(=O)CN4CCN(C)CC4)c(Cl)c3C)c12)C(=O)O [Example 332, (2R)-2-{[(5Sa)-5-(3-chloro-2-methyl-4-{[(4-methylpiperazin-1-yl)acetyl]oxy}phenyl)-6-(furan-2-yl)thieno[2,3-d]pyrimidin-4-yl]oxy}-3-(2-methoxyphenyl)propanoic acid] | 1.3e-08
Cc1c(-c2c(-c3ccco3)sc3ncnc(OC(C(=O)O)c4ccccc4)c23)ccc(OCCN2CCN(C)CC2)c1Cl [Example 340, (2R)-{[(5Sa)-5-{3-chloro-2-methyl-4-[2-(4-methylpiperazin-1-yl)ethoxy]phenyl}-6-(furan-2-yl)thieno[2,3-d]pyrimidin-4-yl]oxy}(phenyl)ethanoic acid] | 6.7e-07
Cc1c(-c2c(-c3ccco3)sc3ncnc(OC(Cc4cccc(F)c4F)C(=O)O)c23)ccc(OCCN2CCN(C)CC2)c1Cl [Example 350, (2R)-2-{[(5Sa)-5-{3-chloro-2-methyl-4-[2-(4-methylpiperazin-1-yl)ethoxy]phenyl}-6-(furan-2-yl)thieno[2,3-d]pyrimidin-4-yl]oxy}-3-(2,3-difluorophenyl)propanoic acid] | 2.8e-08
Cc1c(-c2c(-c3ccco3)sc3ncnc(O[C@H](Cc4ccccc4C(F)(F)F)C(=O)O)c23)ccc(OCCN2CCN(C)CC2)c1Cl [Example 353, (2R)-2-{[(5Sa)-5-{3-chloro-2-methyl-4-[2-(4-methylpiperazin-1-yl)ethoxy]phenyl}-6-(furan-2-yl)thieno[2,3-d]pyrimidin-4-yl]oxy}-3-[2-(trifluoromethyl)phenyl]propanoic acid] | 2.8e-08
Cc1c(-c2c(-c3ccco3)sc3ncnc(OC(Cc4ccccc4CN)C(=O)O)c23)ccc(OCCN2CCN(C)CC2)c1Cl [Example 355, (2R)-3-[2-(aminomethyl)phenyl]-2-{[(5Sa)-5-{3-chloro-2-methyl-4-[2-(4-methylpiperazin-1-yl)ethoxy]phenyl}-6-(furan-2-yl)thieno[2,3-d]pyrimidin-4-yl]oxy}propanoic acid] | 3e-08
CC(=O)NCc1ccccc1CC(Oc1ncnc2sc(-c3ccco3)c(-c3ccc(OCCN4CCN(C)CC4)c(Cl)c3C)c12)C(=O)O [Example 356, (2R)-3-{2-[(acetylamino)methyl]phenyl}-2-{[(5Sa)-5-{3-chloro-2-methyl-4-[2-(4-methylpiperazin-1-yl)ethoxy]phenyl}-6-(furan-2-yl)thieno[2,3-d]pyrimidin-4-yl]oxy}propanoic acid] | 1.1e-08
Cc1c(-c2c(-c3ccco3)sc3ncnc(OC(Cc4ccccc4SCC(F)(F)F)C(=O)O)c23)ccc(OCCN2CCN(C)CC2)c1Cl [Example 361, (2S)-2-{[(5Ra)-5-{3-chloro-2-methyl-4-[2-(4-methylpiperazin-1-yl)ethoxy]phenyl}-6-(furan-2-yl)thieno[2,3-d]pyrimidin-4-yl]oxy}-3-{2-[(2,2,2-trifluoroethyl)sulfanyl]phenyl}propanoic acid] | 7.1e-07
COc1ccccc1CC(Oc1ncnc2sc(-c3ccc(Cl)o3)c(-c3ccc(OCCN4CCN(C)CC4)c(Cl)c3C)c12)C(=O)O [Example 363, (2R)-2-{[6-(5-chlorofuran-2-yl)-(5Sa)-5-{3-chloro-2-methyl-4-[2-(4-methylpiperazin-1-yl)ethoxy]phenyl}thieno[2,3-d]pyrimidin-4-yl]oxy}-3-(2-methoxyphenyl)propanoic acid] | 7.7e-09
CCc1sc2ncnc(OC(Cc3ccccc3)C(=O)O)c2c1-c1ccc(OCC(=O)N2CCN(C)CC2)c(Cl)c1C [Example 392, (2R)-2-[((5Sa)-5-{3-chloro-2-methyl-4-[2-(4-methylpiperazin-1-yl)-2-oxoethoxy]phenyl}-6-ethylthieno[2,3-d]pyrimidin-4-yl)oxy]-3-phenylpropanoic acid] | 3e-08

Same assay, conditions: fluorescence polarisation; Method 1, or Method 2; read-out: IC50 (M) Mcl-1 FP

Structure (SMILES) | IC50 [M]
CCc1sc2ncnc(OC(Cc3ccccc3)C(=O)O)c2c1-c1ccc(OCc2ccccc2)c(Cl)c1C [Example 394, (2R)-2-({(5Sa)-5-[4-(benzyloxy)-3-chloro-2-methylphenyl]-6-ethylthieno[2,3-d]pyrimidin-4-yl}oxy)-3-phenylpropanoic acid] | 3.4e-08
CCc1sc2ncnc(OC(Cc3ccccc3)C(=O)O)c2c1-c1ccc(OCc2ccncc2)c(Cl)c1C [Example 395, (2R)-2-({(5Sa)-5-[3-chloro-2-methyl-4-(pyridin-4-ylmethoxy)phenyl]-6-ethylthieno[2,3-d]pyrimidin-4-yl}oxy)-3-phenylpropanoic acid] | 1.6e-08
CCc1sc2ncnc(OC(Cc3ccccc3)C(=O)O)c2c1-c1ccc(OCCCc2ccncc2)c(Cl)c1C [Example 399, (2R)-2-[((5Sa)-5-{3-chloro-2-methyl-4-[3-(pyridin-4-yl)propoxy]phenyl}-6-ethylthieno[2,3-d]pyrimidin-4-yl)oxy]-3-phenylpropanoic acid] | 1.4e-08
CCc1sc2ncnc(OC(Cc3ccccc3)C(=O)O)c2c1-c1ccc(OCCCn2ccnc2)c(Cl)c1C [Example 403, (2R)-2-[((5Sa)-5-{3-chloro-4-[3-(1H-imidazol-1-yl)propoxy]-2-methylphenyl}-6-ethylthieno[2,3-d]pyrimidin-4-yl)oxy]-3-phenylpropanoic acid] | 1.4e-08
